Like-named read-outs stand apart in the source and are kept apart here.
Target: human PD-L1 / Human PD-1 (Homo sapiens (Human), UniProt Q9NZQ7)
Assay: Enzyme-Linked Immunosorbent Assay (ELISA), PD-1/PD-L1 binding
Settings: plate-coated human PD-L1, biotinylated human PD-1, read-out: ELISA IC50
How it was run: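 Human PD-L1 coated at 1 μg/mL overnight at 4° C; samples diluted 1:5 and incubated with human PD-1 and biotin (0.3 μg/mL) for 1 h at 37° C. Bound PD-1 detected with streptavidin-HRP and TMB (20 min, 37° C), acid-stopped, absorbance at 450 nm.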

Sequence of human PD-L1 / Human PD-1 (Q9NZQ7 19-239): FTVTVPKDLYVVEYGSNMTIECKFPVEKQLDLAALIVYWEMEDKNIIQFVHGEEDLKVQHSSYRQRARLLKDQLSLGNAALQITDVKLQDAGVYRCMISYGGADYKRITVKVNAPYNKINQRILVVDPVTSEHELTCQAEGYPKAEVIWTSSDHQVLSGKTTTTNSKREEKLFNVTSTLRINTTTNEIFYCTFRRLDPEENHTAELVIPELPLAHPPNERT

IC50 (Table 2) | IC50 (Table 3) | SMILES
500 to 20000 nM | – | CCOc1cc(O[C@H]2CCc3c(-c4ccccc4F)cccc32)c(Cl)cc1CN1CCC(O)CC1 [Example 2.061]
100 to 500 nM | – | COc1cccc(-c2cccc3c2CC[C@@H]3Oc2cc(OCc3cncc(C#N)c3)c(CN3CC(O)C3)cc2Cl)c1Cl [Example 2.072]
100 to 500 nM | – | N#Cc1cncc(COc2cc(O[C@H]3CCc4c(-c5ccccc5F)cccc43)c(Cl)cc2CN2CC[C@H](O)C2)c1 [Example 2.020]
– | 500 to 20000 nM | N#Cc1cncc(COc2cc(O[C@H]3CCc4c(-c5cccc(CO)c5)cccc43)c(Cl)cc2CN[C@@H](CO)C(=O)O)c1 [Example 3.121]
– | 500 to 20000 nM | C[C@@H](O)[C@@H](CC(=O)O)NCc1cc(Cl)c(O[C@H]2CCc3c(-c4ccccc4F)cccc32)cc1OCc1cncc(C#N)c1 [Example 3.116]
100 to 500 nM | – | N#Cc1cncc(COc2cc(OC3CCc4c(-c5ccccc5)cccc43)c(Cl)cc2CN2CC(O)C2)c1 (stereo not drawn) [Example 1.007]
< 100 nM | – | C[C@@H](O)[C@H](NCc1cc(Cl)c(O[C@H]2CCc3c(-c4ccccc4F)cccc32)cc1OCc1cncc(C#N)c1)C(=O)O [Example 2.100]
– | < 100 nM | N#Cc1cncc(COc2cc(O[C@H]3CCc4c(-c5cc6c(c(F)c5F)OCCO6)cccc43)c(Cl)cc2CN[C@@H](CO)C(=O)O)c1 [Example 3.011]
500 to 20000 nM | – | COc1cccc(F)c1-c1cccc2c1CC[C@@H]2Oc1cc(OCc2cncc(C#N)c2)c(CN2CCC(O)CC2)cc1Cl [Example 2.108]
– | < 100 nM | C[C@H](NC(=O)[C@H](C)NCc1cc(Cl)c(O[C@H]2CCc3c(-c4ccccc4F)cccc32)cc1OCc1cncc(C#N)c1)C(=O)O [Example 3.060]
500 to 20000 nM | – | N#Cc1cncc(COc2cc(O[C@H]3CCc4c(-c5ccccc5F)cccc43)c(Cl)cc2CN2CC(F)C2)c1 [Example 2.120]
– | < 100 nM | CN(C)CCCCCNCc1cc(Cl)c(O[C@H]2CCc3c(-c4ccccc4F)cccc32)cc1OCc1cncc(C#N)c1 [Example 3.080]
– | 500 to 20000 nM | CC(N[C@@H](CO)C(=O)O)c1cc(Cl)c(O[C@H]2CCc3c(-c4ccc(O)cc4)cccc32)cc1OCc1cncc(C#N)c1 (stereo partly drawn) [Example 3.111]
< 100 nM | – | N#Cc1cncc(COc2cc(O[C@H]3CCc4c(-c5ccc6c(c5)OCCO6)cccc43)c(Cl)cc2CN[C@@H](CO)C(=O)O)c1 [Example 2.024]
– | 100 to 500 nM | O=C(O)[C@H](CO)NCc1cc(Cl)c(O[C@H]2CCc3c(-c4ccccc4F)cccc32)cc1OCc1cncc(-c2nn[nH]n2)c1 [Example 3.108]
500 to 20000 nM | – | N#Cc1cncc(COc2cc(O[C@H]3CCc4c(-c5ccc(Cl)c(Cl)c5)cccc43)c(Cl)cc2CN[C@@H](CO)C(=O)O)c1 [Example 2.016]
– | < 100 nM | C[C@@H](O)[C@H](NCc1cc(Cl)c(O[C@H]2CCc3c(-c4ccc5c(c4F)OCCO5)cccc32)cc1OCc1cncc(C#N)c1)C(=O)O [Example 3.053]
– | 100 to 500 nM | Cc1n[nH]c(C)c1CNCc1cc(Cl)c(O[C@H]2CCc3c(-c4ccccc4F)cccc32)cc1OCc1cncc(C#N)c1 [Example 3.082]
– | < 100 nM | N#Cc1cncc(COc2cc(O[C@@H]3CCc4c(-c5ccccc5F)cccc43)c(Cl)cc2CN[C@@H](CO)C(=O)O)c1 [Example 3.120]
– | < 100 nM | N#Cc1cncc(COc2cc(O[C@H]3CCc4c(-c5cccc(O)c5)cccc43)c(Cl)cc2CN[C@@H](CO)C(=O)O)c1 [Example 3.118]
– | < 100 nM | N#Cc1cncc(COc2cc(O[C@H]3CCc4c(-c5ccccc5F)cccc43)c(Cl)cc2CN[C@@H]2CCCC[C@@H]2O)c1 [Example 3.032]

IC50 (Table 2) | IC50 (Table 3) | SMILES
– | 500 to 20000 nM | N#Cc1cncc(COc2cc(O[C@H]3CCc4c(-c5ccccc5F)cccc43)c(Cl)cc2CN2C[C@H](O)[C@@H](O)[C@H](O)[C@H]2CO)c1 [Example 3.073]
100 to 500 nM | – | CCOc1cc(O[C@H]2CCc3c(-c4ccccc4F)cccc32)c(Cl)cc1CN[C@H](C(=O)O)[C@@H](C)O [Example 2.158]
– | 100 to 500 nM | N#Cc1cncc(COc2cc(O[C@H]3CCc4c(-c5ccccc5F)cccc43)c(Cl)cc2CNCc2ccc(C(N)=O)cc2)c1 [Example 3.092]
< 100 nM | – | COC[C@H](NCc1cc(Cl)c(O[C@H]2CCc3c(-c4ccccc4F)cccc32)cc1OCc1cncc(C#N)c1)C(=O)O [Example 2.134]
100 to 500 nM | – | COc1cccc(-c2cccc3c2CC[C@@H]3Oc2cc(OCc3cncc(C#N)c3)c(CNCC(C)(C)O)cc2Cl)c1F [Example 2.142]
– | < 100 nM | CS(=O)(=O)c1cncc(COc2cc(O[C@H]3CCc4c(-c5ccc6c(c5F)OCCO6)cccc43)c(Cl)cc2CN[C@@H](CO)C(=O)O)c1 [Example 3.010]
– | < 100 nM | CC(O)C(NCc1cc(Cl)c(O[C@H]2CCc3c(-c4ccccc4F)cccc32)cc1OCc1cncc(C#N)c1)c1nnn[nH]1 (stereo partly drawn) [Example 3.134]
< 100 nM | – | C[C@H](NCc1cc(Cl)c(O[C@H]2CCc3c(-c4ccccc4F)cccc32)cc1OCc1cncc(C#N)c1)C(=O)O [Example 2.098]
< 100 nM | – | COc1ccc(Cl)c(-c2cccc3c2CC[C@@H]3Oc2cc(OCc3cncc(C#N)c3)c(CN[C@@H](CO)C(=O)O)cc2Cl)c1 [Example 2.065]
100 to 500 nM | – | N#Cc1cncc(COc2cc(O[C@H]3CCc4c(-c5ccccc5)cccc43)c(Cl)cc2CNCCn2nn[nH]c2=O)c1 [Example 1.010]
< 100 nM | – | N#Cc1cncc(COc2cc(O[C@@H]3CCc4c(-c5ccccc5F)cccc43)c(Cl)cc2CN[C@@H](CO)C(=O)O)c1 [Example 2.139]
– | < 100 nM | N#Cc1cncc(COc2cc(O[C@H]3CCc4c(-c5ccccc5F)cccc43)c(Cl)cc2CN[C@@H]2CCOC[C@H]2O)c1 [Example 3.037]
100 to 500 nM | – | N#Cc1cncc(COc2cc(O[C@H]3CCc4c(-c5ccccc5F)cccc43)c(Cl)cc2CNCC(N)=O)c1 [Example 2.171]
– | < 100 nM | N#Cc1cncc(COc2cc(O[C@H]3CCc4c(-c5ccccc5F)cccc43)c(Cl)cc2CN[C@@H]2COC[C@H]2O)c1 [Example 3.039]
100 to 500 nM | – | N#Cc1cncc(COc2cc(O[C@H]3CCc4c(-c5ccccc5)cccc43)c(Cl)cc2CN2CC(O)C2)c1 [Example 2.001]
< 100 nM | – | COc1cccc(-c2cccc3c2CC[C@@H]3Oc2cc(OCc3cncc(C#N)c3)c(CN[C@H](C(=O)O)[C@@H](C)O)cc2Cl)c1F [Example 2.106]
– | 500 to 20000 nM | CC(C)OC(=O)[C@@H](NCc1cc(Cl)c(O[C@H]2CCc3c(-c4ccc5c(c4F)OCCO5)cccc32)cc1OCc1cncc(C#N)c1)[C@@H](C)O [Example 3.045]
– | 100 to 500 nM | N#Cc1cncc(COc2cc(O[C@H]3CCc4c(-c5ccccc5F)cccc43)c(Cl)cc2CNCCN2CCCCC2CO)c1 (stereo partly drawn) [Example 3.077]
100 to 500 nM | – | OC1CCN(Cc2cc(Cl)c(O[C@H]3CCc4c(-c5ccccc5F)cccc43)cc2OCc2cnc(Cl)nc2)CC1 [Example 2.111]
500 to 20000 nM | – | OC1CCN(Cc2cc(Cl)c(O[C@H]3CCc4c(-c5ccccc5F)cccc43)cc2OCc2ccc(C(F)(F)F)nc2)CC1 [Example 2.095]
< 100 nM | – | CC(CO)(NCc1cc(Cl)c(O[C@H]2CCc3c(-c4ccccc4F)cccc32)cc1OCc1cncc(C#N)c1)C(=O)O (stereo partly drawn) [Example 2.152]

From US10639284B2, “Immunomodulator compounds” (CHEMOCENTRYX, INC., priority 2016, dated 2020)
